The text below walks through data of paper PMC8634379, “From the Design to the In Vivo Evaluation of Benzohomoadamantane-Derived Soluble Epoxide Hydrolase Inhibitors for the Treatment of Acute Pancreatitis” (Journal of Medicinal Chemistry, 2021).

Like-named read-outs stand apart in the source and are kept apart here.

This series is described as follows: Concentrations in plasma and pancreatic tissue in the efficacy study. Format: in vivo, C57BL/6 male mice. As to conditions: 10 h post-administration; for concentration at 10 h: male, C57BL/6, mouse, intraperitoneal. The source says:
During the experimental procedure, the animals were identified with a permanent marker (tail code numbers). […] They underwent a period of 7 days of acclimatization between the date of arrival and the start of the procedure. […] Diet was provided to the animals ad libitum, but they were fasted overnight before the first cerulein injection, and food was replaced after the last cerulein injection. Tap water was supplied by CASSA (Servei d’Aigües de Sabadell) ad libitum. […] Ministry of agriculture, livestock and fishing of the Autonomous Government of Catalonia, Spain. […] The vehicle was prepared the day before and kept at 4 °C. Pancreatitis induction: Mice (n = 41) were weighed, identified by a distinct number at the base of the tail, and fasted overnight. Cerulein (cerulein and cerulein + 22 groups) (50 μg/kg, prepared in 0.9% NaCl) or vehicle (0.9% NaCl) (control group) were intraperitoneally injected (V = 5 mL/kg) 12 consecutive times, at 1 h intervals (h = 0–11). Food was replaced after the last injection. A satellite experiment was designed where animals (n = 3) were distributed in control, cerulein, and cerulein + 22-treated groups. Pancreatitis was induced by seven injections of cerulein (or vehicle in the control group) at 1 h intervals (h = 0–6). […] Animals from the control and cerulein groups received vehicle administration (10% 2-hydroxypropyl-β-cyclodextrin) (V = 10 mL/kg). Extra groups were treated 2 h after the first cerulein injection: 22 (0.3 mg/kg), control, and cerulein groups (10% 2-hydroxypropyl-β-cyclodextrin). […] Blood was collected from the vena cava in an Eppendorf containing K2-EDTA and centrifuged at 10,000 rpm for 5 min for plasma collection. Plasma was stored at −80 °C until analysis. The mice were sacrificed by cervical dislocation and the pancreases were dissected and weighed. Pancreases from three animals were frozen in liquid N2 and stored at −80 °C until analysis. Pancreases from five mice were sectioned and one part was placed in 10% formalin and sent to Anapath (Granada, Spain) for histology analysis and the other was immediately placed in RNAse-free eppendorfs, frozen in N2, and stored at −80 °C for gene expression assays.

In the case of `O=C(NC12CC3CC(Cl)(CC(C1)c1ccccc13)C2)N[C@H]1CC[C@H](Oc2ccc(C(=O)O)cc2)CC1` [Compound 22, 4-[((1r,4r)-4-(3-(9-Chloro-5,6,8,9,10,11-hexahydro-7H-5,9:7,11-dimethanobenzo[9]annulen-7-yl)ureido)cyclohexyl)oxy]benzoic Acid], the “concentration in pancreatic tissues” value (0.1 mg/kg IP) is reported as “no amount of 22 was detected”. Also, the concentration at 10 h was 29.9 ng/g (pancreas, 0.3 mg/kg IP, read-out: concentration in pancreas); 14 nM (plasma, 0.1 mg/kg IP, read-out: plasma level); 175 nM (plasma, 0.3 mg/kg IP, read-out: plasma level).
